# Assay results reported in patent publication US5807729A, “Metalloprotease having increased activity” (Novo Nordisk A/S, priority 1995, dated 1998).
# Like-named read-outs stand apart in the source and are kept apart here. Square brackets hold non-standard residues; d marks the D form. Peptide text beside a SMILES is read from it. pGlu = O=C1CC[C@@H](C(=O)O)N1
# T1: p45 metalloprotease from Fusarium oxysporum (Fusarium oxysporum)
# T1 chain: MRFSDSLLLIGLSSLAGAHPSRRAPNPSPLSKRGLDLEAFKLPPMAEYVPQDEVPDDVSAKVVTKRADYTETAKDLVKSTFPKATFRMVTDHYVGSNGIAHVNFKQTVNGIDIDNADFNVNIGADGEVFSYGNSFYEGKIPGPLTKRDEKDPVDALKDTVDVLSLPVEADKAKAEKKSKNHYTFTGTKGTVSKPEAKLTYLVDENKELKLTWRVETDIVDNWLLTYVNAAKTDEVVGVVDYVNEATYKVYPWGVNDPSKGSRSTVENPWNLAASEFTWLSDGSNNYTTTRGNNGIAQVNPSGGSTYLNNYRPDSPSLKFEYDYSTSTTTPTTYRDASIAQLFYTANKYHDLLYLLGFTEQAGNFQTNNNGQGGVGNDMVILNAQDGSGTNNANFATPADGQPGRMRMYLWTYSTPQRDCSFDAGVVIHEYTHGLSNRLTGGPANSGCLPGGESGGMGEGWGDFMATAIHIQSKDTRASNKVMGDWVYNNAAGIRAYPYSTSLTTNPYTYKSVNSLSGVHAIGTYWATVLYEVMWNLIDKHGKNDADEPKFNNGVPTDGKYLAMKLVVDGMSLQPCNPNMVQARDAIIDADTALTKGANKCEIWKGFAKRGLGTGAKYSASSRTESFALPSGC
# B1: trypsin-like Fusarium oxysporum protease (enzyme)
# chain: IVGGTSASAGDFPFIVSISRNGGPWCGGSLLNANTVLTAAHCVSGYAQSGFQIRAGSLSRTSGGITSSLSSVRVHPSYSGNNNDLAILKLSTSIPSGGNIGYARLAASGSDPVAGSSATVAGWGATSEGGSSTPVNLLKVTVPIVSRATCRAQYGTSAITNQMFCAGVSSGGKDSCQGDSGGPIVDSSNTLIGAVSWGNGCARPNYSGVYASVGALRSFIDTYA
# B2: synthetic pentapeptide pyroGlu-Glu-Ile-Pro-Asn-COOH (peptide)
# peptide: [pGlu]EIPN-OH
# SMILES: CC[C@H](C)[C@H](NC(=O)[C@H](CCC(=O)O)NC(=O)[C@@H]1CCC(=O)N1)C(=O)N1CCC[C@H]1C(=O)N[C@@H](CC(N)=O)C(=O)O
# Experiments:
# bacterial thermolysins = details: 1M NaCl
# Protocol: FTC-casein (20 microliters, 0.5% w/w in 50 mM Tris-Cl, pH 7.2), NaCl (0-2M) in trypsin-like F. oxysporum protease sample buffer, and either trypsin-like F. oxysporum protease (10 microliters, 1.8 ug) or p45 metalloprotease (10 microliters, 0.33 ug) are added to trypsin-like F. oxysporum protease sample buffer to a total volume of 50 microliters. Samples are incubated at room temperature for 30 minutes. At the end of the incubation, 150 microliters of 5% (w/v) trichloroacetic acid is added and the samples are allowed to precipitate for 60 minutes at 4° C. Samples are subsequently centrifuged (14,000 rpm, 5 minutes) and 30 microliters of supernatant are added to 3 ml of 0.5M sodium borate, pH 9.
# The fluorescence of the samples is measured (Perkin-Elmer fluorimeter) using a 2.5 nm slit width, excitation at 490 nm and emission detected at 525 nm.
# p45 Metalloprotease [1] = target: T2, p45 Metalloprotease (Fusarium oxysporum, UniProt M1UZ70); details: 1M NaCl; FIG. 11
# [2] = target: trypsin-like F. oxysporum protease (Fusarium oxysporum, UniProt P35049); details: 2M NaCl; FIG. 11
# [3] = target: neutral metalloprotease from Bacillus stearothermophilus (Bacillus stearothermophilus); assay: enzyme inhibition, kinetic analysis of B.s. thermolysin activity
# [4] = tested on: Fusarium oxysporum metalloprotease; assay: Inhibition of Fusarium metalloprotease with 1,10-phenanthroline / EDTA and reactivation with Zn2+; format: biochemical; details: inhibitor 1 mM
# Protocol: (§1) Metalloprotease activity is measured as released trypsin activity from pro-trypsin-like Fusarium oxysporum protease deposited at the Deutsche Sammlung von Mikroorganismen, Gottingen, Germany under the number DSM 2672, after a 30-60 min pre-incubation at 25° C. in 0.1M Tris, 2 mM CaCl2, pH 7 (at lower pH, 100 mM borate, 10 mM DMG, 2 mM CaCl2 is used).
# (§2) Metalloproteases contain a catalytic zinc metal center which participates in the hydrolysis of the peptide backbone. The active zinc center differentiates these proteases from calpains whose activities are dependent upon the presence of calcium. Confirmation of a protease as a metallo-protease is loss of proteolytic activity accomplished by removal of the zinc center with 1,10-phenanthroline (1 mM) followed by titration with Zn^2+ (0.1-100 μM) to restore full activity.
# (§3) However, when combined the metalloprotease cleaves recombinant pro-trypsin-like Fusarium oxysporum protease disclosed, supra to yield the active tryptic protease. Metalloprotease activity is halted upon the addition of 1 mM 1,10-phenanthroline (Table 1).
# [5] = target: T3, trypsin-like Fusarium oxysporum protease (Fusarium oxysporum, UniProt P35049); assay: Effect of 1,10-phenanthroline on tryptic activity (L-BAPNA); format: biochemical; details: 1,10-phenanthroline 1 mM
# T3 construct: the metalloprotease cleaves recombinant pro-trypsin-like Fusarium oxysporum protease disclosed, supra to yield the active tryptic protease; made in house; host or cells: Aspergillus oryzae (IFO 4177), plasmid pSX183
# Protocol: as §1, §3
# [6] = tested on: Bacillus stearothermophilus thermolysin; assay: Inhibitor analysis of B.s. thermolysin; format: biochemical; details: for Ki: read-out: Inhibition Constant (Ki), B.s. Thermolysin
# Protocol: (§4) Other metalloprotease inhibitors are utilized to further differentiate the p45 metalloprotease from the Bacillus thermolysins. Inhibition constants for 1,10-phenanthroline, phosphoramidon, and CdCl2 are determined to be 130 uM, 1 uM, and 67 uM against the p45 Metalloprotease (Table 3). Inhibition constants for 1,10-phenanthroline, phosphoramidon, and CdCl2 are 85 uM, 26 uM, and 2 uM against the Bacillus stearothermophilus thermolysin. […] It is of interest to note that phophoramidon is an effective inhibitor of many bacterial metallo-endopeptidases but few of mammalian origin. Also, it is interesting that CdCl2 is found to be such an effective inhibitor of metalloproteases. No evidence of CdCl2 inhibition of metalloproteases has been found in the literature.
# p45 Metalloprotease [7] = target: T2, p45 Metalloprotease; assay: Inhibitor analysis of the p45 metalloprotease; format: biochemical; set-up: precursor 632 aa (18 signal, 226 pro); native or A. oryzae-expressed with same N-terminus
# Protocol: as §4
# p45 Metalloprotease [8] = target: T2, p45 Metalloprotease; assay: Influence of heavy metal additions on p45 metalloprotease activity (FTC-casein); format: biochemical; set-up: precursor 632 aa (18 signal, 226 pro); native or A. oryzae-expressed with same N-terminus; details: CoCl2 0-4 mM, p45 0.9 ug
# Protocol: Samples are incubated at room temperature for 30 minutes.
# It is interesting that substoichiometric levels of Zn are found after metal analysis (ICP) of the p45 metalloprotease. It appears that zinc levels are only 5% of that expected based on the level of p45 metalloprotease in the sample. No other heavy metal (i.e. Cd, Cr, Co, Cu, Mo, Ni, Li, […], Fe, Mn, As, Pb, or Se) is present in the p45 maturase sample.
# p45 Metalloprotease [9] = target: T2, p45 Metalloprotease; assay: Effect of the pentapeptide on processing of pro-trypsin-like protease by p45; format: biochemical; set-up: precursor 632 aa (18 signal, 226 pro); native or A. oryzae-expressed with same N-terminus; details: 45-minute pre-incubation at room temperature
# Protocol: After a 45-minute pre-incubation at room temperature with gentle shaking, the mixtures are diluted 500-fold and assayed for trypsin-like F. oxysporum protease activity.
# FTC-labeled casein [10] = assay: pH profile, FTC-casein hydrolysis; format: biochemical
# Protocol: Purified p45 metalloprotease (10 microliters, 0.005 mg/ml) is added to 30 microliters of Universal pH buffer (pH 5-11.5), and 20 microliters of FTC-labeled casein are incubated at 37° C. for 1-hour. 150 microliters of 5% TCA is added to acidify and precipitate casein (1-hour at room temperature). […] Samples are then analyzed on the fluorimeter (slit width=2.5 nm; excitation freq.=490 nm; emission freq.=525 nm; integration time=2 sec).
# FTC-labeled casein [11] = details: scale: fold
# [12] = tested on: pro-trypsin-like Fusarium oxysporum protease; assay: Proteolytic enzyme assay: tryptic activity released from pro-trypsin-like protease, L-BAPNA, 405 nm; format: biochemical
# Protocol: as §1, §2, §3
# [13] = target: T1, p45 metalloprotease from Fusarium …; assay: enzyme inhibition, kinetic analysis of p45 activity
molecule,measurement,setting,value
[Cl-].[Na+] [NaCl],inhibition of bacterial thermolysins,bacterial thermolysins,38%
same,inhibition of p45 metalloprotease activity,p45 Metalloprotease [1],85%
same,inhibition of trypsin-like F. oxysporum protease activity,[2],25%
synthetic pentapeptide pyroGlu-Glu-Ile-Pro-Asn-COOH,Ki,[3],> 5000 µM
"c1cnc2c(c1)ccc1cccnc12 [1,10-phenanthroline]",metalloprotease activity upon addition of the inhibitor,[4],halted
same,inhibition of trypsin-like protease,[5],not inhibited
same,"type of inhibition, B.s. Thermolysin",[6]; kinetic analysis,Noncompetitive
same,Ki,[6],85 µM
same,Ki,p45 Metalloprotease [7],130 µM
same,"type of inhibition, p45 Maturase",p45 Metalloprotease [7]; kinetic analysis,Noncompetitive
[Cl-].[Cl-].[Co+2] [CoCl2],enhancement of p45 metalloprotease activity,p45 Metalloprotease [8],no enhanced activity
"CC[C@H](C)[C@H](NC(=O)[C@H](CCC(=O)O)NC(=O)[C@@H]1CCC(=O)N1)C(=O)N1CCC[C@H]1C(=O)N[C@@H](CC(N)=O)C(=O)O [<E-E-I-P-N, pyroGlu-Glu-Ile-Pro-Asn-COOH] ([pGlu]EIPN-OH)",Ki,[6]; no effect,> 5000 µM
same,Ki,p45 Metalloprotease [7],> 5000 µM
same,effect of the pentapeptide on p45 metalloprotease activity,p45 Metalloprotease [9],not an inhibitor of p45 metalloprotease activity
B1,pH at which the protease functions optimally,FTC-labeled casein [10],~9.5
same,hydrolysis of FTC-casein at pH 9,FTC-labeled casein [11],16
same,Tryptic Activity,"[12]; with 1,10-phenanthroline (1 mM), without Zn2+",33.8 Δ Abs/min × 10^-4
same,Tryptic Activity,"[12]; with inhibitor (1,10-phenanthroline) addition",33.8×10^-4 ΔAbs/min
same,Tryptic Activity,"[12]; without 1,10-phenanthroline, without Zn2+",34.0 Δ Abs/min × 10^-4
same,Tryptic Activity,[12]; without inhibitor addition,34.0×10^-4 ΔAbs/min
B2,Ki,[13],> 5000 µM
